{"source": "patent US9365572B2", "about": "“PI3K and/or mTOR inhibitor” (XUANZHU PHARMA CO., LTD., priority 2012, dated 2016)", "key": {"PKD1": {"molecular_target": "PKD1 (Homo sapiens (Human), UniProt Q15139)", "experiment": "Kinase selectivity, Mobility shift assay", "type": "biochemical", "experimental": "(§1) Object: In this assay, the inhibitory activity of the test substance on the kinases listed in Table 3 was determined, and therefore the selectivity of the present compound was determined.\n(§2) Except for the BRAF V600E kinase in Table 3, the Mobility shift assay was used for other kinases.\n(§3) 1. Preparation of Agents:\n(§4) • 1.1 1-fold kinase buffer without MnCl2: 50 mM HEPES, pH 7.5, 0.0015% Brij-35, 10 mM MgCl2, 2 mM DTT. • 1.2 1-fold kinase buffer with MnCl2: 50 mM HEPES, pH 7.5, 0.0015% Brij-35, 10 mM MgCl2, 10 mM MnCl2, 2 mM DTT. • 1.3 Termination solution: 100 mM HEPES, pH 7.5, 0.0015% Brij-35, 0.2% Coating Reagent#3, 50 mM EDTA. • 1.4 2.5-fold kinase solution: The kinase was added to the 1-fold kinase buffer to form a 2.5-fold kinase solution. • 1.5 2.5-fold substrate solution: FAM fluorescence-labelled polypeptide and ATP were added to the 1-fold kinase buffer to form a 2.5-fold substrate solution. 2. Preparation of 5-fold compound\n(§5) The final test concentration of the compound was 10 μM at maximum. Firstly, a 50-fold concentration (i.e. 500 μM) was prepared with 100% DMSO. The compound was diluted with 100% DMSO by 5 folds at 5 concentrations (successively 500 μM, 100 μM, 20 μM, 4 μM, and 0.8 μM). After diluting with 1-fold kinase buffer by 10 folds, 5 μl of the samples were transferred to a 384-well reaction plate. Two negative control wells and two positive control wells were set at each line respectively. Replication was made in a 96-well plate in five concentrations of 5-fold compound. 10% DMSO was added to the positive control well, and 5 μl of EDTA (250 mM) was added to the negative control well.\n(§6) • 3.1 To the 384-well reaction plate was added 5-fold compound dissolved in 10% DMSO at 5 μl/well. • 3.2 To the 384-well reaction plate was added 2.5-fold kinase solution at 10 μl/well. The plate was incubated at room temperature for 10 mins. • 3.3 To the 384-well reaction plate was added 2.5-fold substrate solution at 10 μl/well. The plate was incubated at 28° C. for a certain period. • 3.4 25 μl termination solution was added to terminate the reaction. The conversion was read from Caliper. 4. Inhibition rate calculation Inhibition rate (%)=(maximum−sample value)/(maximum−minimum)×100 • wherein: • maximum refers to the conversion at the DMSO control well, • minimum refers to the conversion at the control well without kinase. Lanthascreen Analysis Method for the BRAF V600E Kinase 1. Preparation of Agents: • 1.1 2-fold kinase solution: using 1-fold kinase buffer to prepare 2-fold kinase solution, with a final concentration of 0.35 nM of BRAFV600E; • 1.2 4-fold substrate solution: using 1-fold kinase buffer to prepare 4-fold substrate solution, with a final substrate solution concentration of 0.2 μM of Fluorescein-MAP2K1 and 1.5 μM of ATP. 2. Preparation of 4-fold compound • The final test concentration of the compound was 10 μM at maximum. Firstly, a 100-fold concentration (i.e. 1000 μM) was prepared with 100% DMSO. The compound was diluted with 100% DMSO by 5 folds at 5 concentrations. The compound series was identical to that in the Mobility Shift Assay. After diluting with 1-fold kinase buffer by 25 folds, the resulting samples were shaked and mixed evenly on a plate-shaker for 10 mins. 3. Procedure • 3.1 To the 384-well reaction plate was added 4-fold compound dissolved in 10% DMSO at 2.5 µl/well; • 3.2 To the 384-well reaction plate was added 2-fold kinase solution at 5 μl/well, and to the negative control wells were added 1-fold kinase buffer. The samples were shaked, mixed evenly, and kept standing at room temperature. • 3.3 To the 384-well reaction plate was added 4-fold substrate solution at 2.5 μl/well. The plate was reacted, shaked, mixed evenly and incubated at room temperature for one hour; • 3.4 Reaction result detection: 2-fold detection solution was prepared, with a final concentration of 2 nM of Antibody and 10 mM of EDTA. 10 μl of the detection solution was transferred to the 384-well plate to terminate the reaction. […]"}, "IKKB": {"molecular_target": "IKKB (Homo sapiens (Human), UniProt O14920)", "sequence (O14920 whole entry, species assumed)": "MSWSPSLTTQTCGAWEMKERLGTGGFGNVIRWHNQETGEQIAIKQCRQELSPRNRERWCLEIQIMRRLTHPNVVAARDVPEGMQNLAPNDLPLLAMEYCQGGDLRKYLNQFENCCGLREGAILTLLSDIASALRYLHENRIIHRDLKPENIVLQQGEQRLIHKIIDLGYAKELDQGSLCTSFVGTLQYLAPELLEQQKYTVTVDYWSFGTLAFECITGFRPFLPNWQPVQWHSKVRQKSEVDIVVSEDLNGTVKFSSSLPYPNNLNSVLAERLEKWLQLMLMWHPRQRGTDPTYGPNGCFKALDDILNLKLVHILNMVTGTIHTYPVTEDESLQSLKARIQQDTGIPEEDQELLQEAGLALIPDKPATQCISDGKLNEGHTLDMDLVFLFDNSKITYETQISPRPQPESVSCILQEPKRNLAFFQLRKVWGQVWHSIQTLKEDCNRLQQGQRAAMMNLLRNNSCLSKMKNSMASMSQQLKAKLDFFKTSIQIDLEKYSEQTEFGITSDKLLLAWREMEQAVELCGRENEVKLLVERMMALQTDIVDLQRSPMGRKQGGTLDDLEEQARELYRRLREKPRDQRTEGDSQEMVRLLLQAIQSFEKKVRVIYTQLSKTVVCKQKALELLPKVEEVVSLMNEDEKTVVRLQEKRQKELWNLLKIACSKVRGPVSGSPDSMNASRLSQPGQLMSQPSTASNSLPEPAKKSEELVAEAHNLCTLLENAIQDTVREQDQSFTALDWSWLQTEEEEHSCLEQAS", "experiment": "Kinase selectivity, Mobility shift assay", "type": "biochemical", "experimental": "as §1, §2, §3, §4, §5, §6"}, "AURA": {"molecular_target": "AURA (Homo sapiens (Human), UniProt O14965)", "sequence (O14965 whole entry, species assumed)": "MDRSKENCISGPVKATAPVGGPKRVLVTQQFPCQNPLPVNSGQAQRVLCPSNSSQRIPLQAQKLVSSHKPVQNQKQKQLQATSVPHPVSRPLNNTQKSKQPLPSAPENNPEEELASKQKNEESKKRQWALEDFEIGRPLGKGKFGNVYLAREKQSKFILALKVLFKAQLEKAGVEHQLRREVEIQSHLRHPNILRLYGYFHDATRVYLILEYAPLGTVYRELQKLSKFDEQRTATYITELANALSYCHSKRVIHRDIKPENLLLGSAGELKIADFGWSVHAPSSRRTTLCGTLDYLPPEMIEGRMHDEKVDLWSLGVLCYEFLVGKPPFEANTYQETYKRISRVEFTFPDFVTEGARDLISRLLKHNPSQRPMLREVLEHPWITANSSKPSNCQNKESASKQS", "experiment": "Kinase selectivity, Mobility shift assay", "type": "biochemical", "experimental": "as §1, §2, §3, §4, §5, §6"}, "SGK": {"molecular_target": "SGK (Homo sapiens (Human), UniProt O00141)", "experiment": "Kinase selectivity, Mobility shift assay", "type": "biochemical", "experimental": "as §1, §2, §3, §4, §5, §6"}, "SYK": {"molecular_target": "SYK (Homo sapiens (Human), UniProt P43405)", "experiment": "Kinase selectivity, Mobility shift assay", "type": "biochemical", "experimental": "as §1, §2, §3, §4, §5, §6"}, "ALK": {"molecular_target": "ALK (Homo sapiens (Human), UniProt Q9UM73)", "experiment": "Kinase selectivity, Mobility shift assay", "type": "biochemical", "experimental": "as §1, §2, §3, §4, §5, §6"}, "CMET": {"molecular_target": "CMET (Homo sapiens (Human), UniProt P08581)", "experiment": "Kinase selectivity, Mobility shift assay", "type": "biochemical", "experimental": "as §1, §2, §3, §4, §5, §6"}, "MSK1": {"molecular_target": "MSK1 (Homo sapiens (Human), UniProt O75582)", "experiment": "Kinase selectivity, Mobility shift assay", "type": "biochemical", "experimental": "as §1, §2, §3, §4, §5, §6"}, "CSK": {"molecular_target": "CSK (Homo sapiens (Human), UniProt P41240)", "sequence (P41240 whole entry, species assumed)": "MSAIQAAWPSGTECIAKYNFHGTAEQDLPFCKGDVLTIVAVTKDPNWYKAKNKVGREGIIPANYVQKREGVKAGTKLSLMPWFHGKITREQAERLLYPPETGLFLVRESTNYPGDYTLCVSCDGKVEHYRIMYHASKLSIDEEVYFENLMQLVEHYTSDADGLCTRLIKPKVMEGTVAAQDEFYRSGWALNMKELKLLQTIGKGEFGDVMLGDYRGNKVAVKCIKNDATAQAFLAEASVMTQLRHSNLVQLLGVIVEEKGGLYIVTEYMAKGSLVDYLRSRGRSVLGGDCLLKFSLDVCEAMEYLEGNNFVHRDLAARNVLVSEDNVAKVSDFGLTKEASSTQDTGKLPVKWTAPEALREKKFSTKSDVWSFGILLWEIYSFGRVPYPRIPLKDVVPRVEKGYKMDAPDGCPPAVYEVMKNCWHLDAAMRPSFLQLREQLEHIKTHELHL", "experiment": "Kinase selectivity, Mobility shift assay", "type": "biochemical", "experimental": "as §1, §2, §3, §4, §5, §6"}, "MAPKAPK2": {"molecular_target": "MAPKAPK2 (Homo sapiens (Human), UniProt P49137)", "experiment": "Kinase selectivity, Mobility shift assay", "type": "biochemical", "experimental": "as §1, §2, §3, §4, §5, §6"}, "Tie2": {"molecular_target": "Tie2 (Homo sapiens (Human), UniProt Q02763)", "sequence (Q02763 23-1124, species assumed)": "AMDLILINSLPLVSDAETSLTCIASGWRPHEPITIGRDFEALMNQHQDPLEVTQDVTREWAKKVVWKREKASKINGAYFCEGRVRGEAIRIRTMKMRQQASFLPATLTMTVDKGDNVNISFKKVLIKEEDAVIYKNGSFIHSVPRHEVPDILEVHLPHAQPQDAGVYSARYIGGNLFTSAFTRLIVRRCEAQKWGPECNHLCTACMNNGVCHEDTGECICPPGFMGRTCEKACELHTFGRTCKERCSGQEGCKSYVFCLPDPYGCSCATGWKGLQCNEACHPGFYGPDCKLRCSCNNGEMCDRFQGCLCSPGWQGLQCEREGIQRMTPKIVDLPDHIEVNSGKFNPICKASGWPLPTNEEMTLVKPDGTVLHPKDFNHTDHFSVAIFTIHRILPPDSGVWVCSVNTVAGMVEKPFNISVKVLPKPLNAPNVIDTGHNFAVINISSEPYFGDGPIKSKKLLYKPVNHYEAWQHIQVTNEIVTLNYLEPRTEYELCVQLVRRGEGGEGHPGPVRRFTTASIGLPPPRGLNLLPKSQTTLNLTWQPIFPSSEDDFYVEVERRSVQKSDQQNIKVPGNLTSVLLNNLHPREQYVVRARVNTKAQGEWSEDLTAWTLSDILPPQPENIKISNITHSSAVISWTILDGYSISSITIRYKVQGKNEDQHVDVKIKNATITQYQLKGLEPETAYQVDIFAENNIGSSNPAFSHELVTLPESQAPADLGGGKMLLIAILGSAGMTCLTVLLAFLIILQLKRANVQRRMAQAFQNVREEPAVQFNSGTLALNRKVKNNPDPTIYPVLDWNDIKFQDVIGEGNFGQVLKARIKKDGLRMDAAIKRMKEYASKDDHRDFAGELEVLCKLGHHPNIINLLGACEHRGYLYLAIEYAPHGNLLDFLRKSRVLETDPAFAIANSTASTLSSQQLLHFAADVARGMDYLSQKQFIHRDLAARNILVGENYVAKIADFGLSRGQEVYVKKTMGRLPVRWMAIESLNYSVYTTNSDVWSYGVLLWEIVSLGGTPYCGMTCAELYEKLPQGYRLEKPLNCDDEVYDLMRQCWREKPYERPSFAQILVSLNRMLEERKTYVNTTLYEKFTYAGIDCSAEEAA", "experiment": "Kinase selectivity, Mobility shift assay", "type": "biochemical", "experimental": "as §1, §2, §3, §4, §5, §6"}, "ZAP70": {"molecular_target": "ZAP70 (Homo sapiens (Human), UniProt P43403)", "experiment": "Kinase selectivity, Mobility shift assay", "type": "biochemical", "experimental": "as §1, §2, §3, §4, §5, §6"}, "FES": {"molecular_target": "FES (Homo sapiens (Human), UniProt P07332)", "experiment": "Kinase selectivity, Mobility shift assay", "type": "biochemical", "experimental": "as §1, §2, §3, §4, §5, §6"}, "P70s6k": {"molecular_target": "P70s6k (Homo sapiens (Human), UniProt P23443)", "sequence (P23443 whole entry)": "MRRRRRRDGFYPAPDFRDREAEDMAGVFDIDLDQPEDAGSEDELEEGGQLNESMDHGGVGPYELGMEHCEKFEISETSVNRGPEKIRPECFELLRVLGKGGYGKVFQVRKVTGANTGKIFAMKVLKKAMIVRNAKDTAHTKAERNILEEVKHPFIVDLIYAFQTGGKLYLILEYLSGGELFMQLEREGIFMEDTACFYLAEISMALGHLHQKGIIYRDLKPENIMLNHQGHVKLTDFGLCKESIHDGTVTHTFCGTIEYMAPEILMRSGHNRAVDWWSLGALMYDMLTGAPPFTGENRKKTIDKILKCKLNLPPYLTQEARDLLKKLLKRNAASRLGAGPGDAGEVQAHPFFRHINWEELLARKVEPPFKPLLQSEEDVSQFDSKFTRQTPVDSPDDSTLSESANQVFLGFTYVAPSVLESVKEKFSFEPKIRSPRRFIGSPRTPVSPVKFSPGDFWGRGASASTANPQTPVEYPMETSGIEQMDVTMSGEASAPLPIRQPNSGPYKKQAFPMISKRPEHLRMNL", "experiment": "Kinase selectivity, Mobility shift assay", "type": "biochemical", "experimental": "as §1, §2, §3, §4, §5, §6"}, "AKT1": {"molecular_target": "AKT1 (Homo sapiens (Human), UniProt P31749)", "experiment": "Kinase selectivity, Mobility shift assay", "type": "biochemical", "experimental": "as §1, §2, §3, §4, §5, §6"}, "FGFR1": {"molecular_target": "FGFR1 (Homo sapiens (Human), UniProt P11362)", "sequence (P11362 22-822, species assumed)": "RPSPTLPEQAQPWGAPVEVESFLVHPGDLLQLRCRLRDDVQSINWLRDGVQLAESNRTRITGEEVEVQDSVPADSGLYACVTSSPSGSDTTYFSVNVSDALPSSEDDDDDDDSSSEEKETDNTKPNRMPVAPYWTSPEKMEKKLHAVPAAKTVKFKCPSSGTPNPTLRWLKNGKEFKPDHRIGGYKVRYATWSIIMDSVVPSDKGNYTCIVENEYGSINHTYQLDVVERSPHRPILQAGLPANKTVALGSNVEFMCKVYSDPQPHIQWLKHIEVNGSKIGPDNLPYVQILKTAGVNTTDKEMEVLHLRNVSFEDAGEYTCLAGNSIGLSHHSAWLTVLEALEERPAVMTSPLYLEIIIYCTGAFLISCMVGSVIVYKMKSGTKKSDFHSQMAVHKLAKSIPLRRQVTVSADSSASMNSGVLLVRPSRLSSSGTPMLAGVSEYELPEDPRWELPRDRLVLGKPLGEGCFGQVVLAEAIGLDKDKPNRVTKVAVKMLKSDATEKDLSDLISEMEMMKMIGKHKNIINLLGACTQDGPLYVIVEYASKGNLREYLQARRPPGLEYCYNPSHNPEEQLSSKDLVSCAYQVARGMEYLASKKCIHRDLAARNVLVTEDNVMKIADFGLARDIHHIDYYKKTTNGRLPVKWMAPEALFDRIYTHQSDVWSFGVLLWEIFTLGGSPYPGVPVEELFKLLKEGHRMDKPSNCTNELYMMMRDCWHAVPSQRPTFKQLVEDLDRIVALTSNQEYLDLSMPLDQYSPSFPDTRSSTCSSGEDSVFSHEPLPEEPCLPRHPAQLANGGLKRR", "experiment": "Kinase selectivity, Mobility shift assay", "type": "biochemical", "experimental": "as §1, §2, §3, §4, §5, §6"}, "GSK3β": {"molecular_target": "GSK3β (Homo sapiens (Human), UniProt P49841)", "sequence (P49841 whole entry, species assumed)": "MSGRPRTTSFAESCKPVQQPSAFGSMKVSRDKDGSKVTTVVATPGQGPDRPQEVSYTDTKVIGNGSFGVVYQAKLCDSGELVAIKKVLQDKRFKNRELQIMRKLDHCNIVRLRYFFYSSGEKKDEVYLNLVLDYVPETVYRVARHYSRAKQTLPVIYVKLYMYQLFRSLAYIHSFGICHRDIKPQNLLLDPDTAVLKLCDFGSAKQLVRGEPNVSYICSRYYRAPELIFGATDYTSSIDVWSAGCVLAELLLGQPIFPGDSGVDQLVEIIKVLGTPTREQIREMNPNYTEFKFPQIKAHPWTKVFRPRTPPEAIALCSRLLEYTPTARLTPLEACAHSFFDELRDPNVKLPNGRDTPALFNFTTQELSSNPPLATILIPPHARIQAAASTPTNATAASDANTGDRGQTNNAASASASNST", "experiment": "Kinase selectivity, Mobility shift assay", "type": "biochemical", "experimental": "as §1, §2, §3, §4, §5, §6"}, "CKIT": {"molecular_target": "CKIT (Homo sapiens (Human), UniProt P10721)", "experiment": "Kinase selectivity, Mobility shift assay", "type": "biochemical", "experimental": "as §1, §2, §3, §4, §5, §6"}, "Tachykinin NK1": {"molecular_target": "Tachykinin NK1 (Homo sapiens (Human), UniProt P25103)", "sequence (P25103 whole entry)": "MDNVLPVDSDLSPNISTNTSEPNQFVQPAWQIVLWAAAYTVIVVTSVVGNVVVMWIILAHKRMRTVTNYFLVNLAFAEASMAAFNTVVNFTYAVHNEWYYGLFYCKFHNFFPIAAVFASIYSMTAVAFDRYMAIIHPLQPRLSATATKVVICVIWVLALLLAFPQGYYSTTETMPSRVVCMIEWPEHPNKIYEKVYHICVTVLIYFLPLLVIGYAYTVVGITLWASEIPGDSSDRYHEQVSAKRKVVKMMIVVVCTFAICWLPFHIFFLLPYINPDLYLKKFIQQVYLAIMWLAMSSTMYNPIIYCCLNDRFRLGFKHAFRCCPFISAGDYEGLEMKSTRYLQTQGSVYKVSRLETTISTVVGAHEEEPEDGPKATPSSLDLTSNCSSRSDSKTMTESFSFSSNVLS", "experiment": "Radioligand binding assay No. 255520", "conditions": "test substance 10 μM, read-out: Inhibitory rate (%), Tachykinin NK1"}}, "data": [{"smiles": "Nc1ccc(-c2ccc3ncc4c(=O)[nH]c(=O)n(-c5cccc(C(F)(F)F)c5)c4c3n2)cn1", "note": "[Compound 5, 9-(6-aminopyridin-3-yl)-1-(3-(trifluoromethyl)phenyl)pyrimido[5,4-c][1,5]naphthyridine-2,4(1H,3H)-dione]", "values": [{"measurement": "IC50", "setting": "PKD1", "result": 2410, "unit": "nM"}, {"measurement": "IC50", "setting": "IKKB", "result": "> 10000", "unit": "nM"}, {"measurement": "IC50", "setting": "AURA", "result": "> 10000", "unit": "nM"}, {"measurement": "IC50", "setting": "SGK", "result": "> 10000", "unit": "nM"}, {"measurement": "IC50", "setting": "SYK", "result": "> 10000", "unit": "nM"}, {"measurement": "IC50", "setting": "ALK", "result": 1170, "unit": "nM"}, {"measurement": "IC50", "setting": "CMET", "result": "> 10000", "unit": "nM"}, {"measurement": "IC50", "setting": "MSK1", "result": "> 10000", "unit": "nM"}, {"measurement": "IC50", "setting": "CSK", "result": "> 10000", "unit": "nM"}, {"measurement": "IC50", "setting": "MAPKAPK2", "result": "> 10000", "unit": "nM"}, {"measurement": "IC50", "setting": "Tie2", "result": 2430, "unit": "nM"}, {"measurement": "IC50", "setting": "ZAP70", "result": "> 10000", "unit": "nM"}, {"measurement": "IC50", "setting": "FES", "result": "> 10000", "unit": "nM"}, {"measurement": "IC50", "setting": "P70s6k", "result": "> 10000", "unit": "nM"}, {"measurement": "IC50", "setting": "AKT1", "result": "> 10000", "unit": "nM"}, {"measurement": "IC50", "setting": "FGFR1", "result": "> 10000", "unit": "nM"}, {"measurement": "IC50", "setting": "GSK3β", "result": "> 10000", "unit": "nM"}, {"measurement": "IC50", "setting": "CKIT", "result": "> 10000", "unit": "nM"}, {"measurement": "inhibition at 10 µM", "setting": "Tachykinin NK1", "result": 20, "unit": "%"}]}]}
